Values joined by “and” are separate entries in the source; they are usually repeats but may differ in a detail not shown here. Identical values can stand only once. Like-named read-outs stand apart in the source and are kept apart here. Marks after values point to notes of the source that are not given here.
Legend:
hPXR = molecular target: T1, hPXR (Homo sapiens, UniProt O75469); test: hPXR TR-FRET competitive binding assay (LanthaScreen); conditions: for 520/495 TR-FRET ratio: replicate wells; for TR-FRET signal (Fig 1e): each column a repeat
T1 sequence (O75469 111-434 limits assumed): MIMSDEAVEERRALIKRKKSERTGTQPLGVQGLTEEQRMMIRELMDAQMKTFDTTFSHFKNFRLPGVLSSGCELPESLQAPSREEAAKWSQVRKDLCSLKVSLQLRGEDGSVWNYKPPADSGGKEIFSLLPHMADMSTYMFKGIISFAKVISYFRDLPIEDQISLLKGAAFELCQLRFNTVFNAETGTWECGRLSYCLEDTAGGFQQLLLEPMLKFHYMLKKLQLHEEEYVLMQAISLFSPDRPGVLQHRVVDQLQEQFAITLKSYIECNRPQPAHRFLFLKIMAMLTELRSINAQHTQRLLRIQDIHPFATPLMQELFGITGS
Method: All PXR‐binding assays were performed as two independent experiments, each with a minimum of four replicates. Final IC50 was obtained by processing the data with GraphPad Prism 6 using standard curve interpolation (sigmoidal, 4PL, variable slope).

PXR = molecular target: T2, PXR (Homo sapiens, UniProt O75469); test: Ligand efficiency metric (LEM) analysis; set-up: expressed in transfected cells; host or cells: LS180; conditions: NSEI-nBEI plane, from PXR reporter Emax
T2 sequence (O75469 1-434): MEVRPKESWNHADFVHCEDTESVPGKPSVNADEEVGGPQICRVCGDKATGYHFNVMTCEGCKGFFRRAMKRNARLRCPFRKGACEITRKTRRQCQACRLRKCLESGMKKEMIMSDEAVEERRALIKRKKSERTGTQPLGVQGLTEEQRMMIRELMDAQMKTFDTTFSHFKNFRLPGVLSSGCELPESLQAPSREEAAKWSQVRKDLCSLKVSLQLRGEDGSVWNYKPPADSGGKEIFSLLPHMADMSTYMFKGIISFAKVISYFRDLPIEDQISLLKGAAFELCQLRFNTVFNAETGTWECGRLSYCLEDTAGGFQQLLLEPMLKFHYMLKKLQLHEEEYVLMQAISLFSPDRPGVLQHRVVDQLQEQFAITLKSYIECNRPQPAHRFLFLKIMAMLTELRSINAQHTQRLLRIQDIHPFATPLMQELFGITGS
Excerpt: Ligand efficiency metric (LEM) analysis for FKK ligand efficiency. The ligand efficiency metrics (LEMs) of compounds FKK1 to 10 and FKK999 as a reference compound, have been analyzed by using a web tool named AtlasCBS which represents LEMs as variables for a Cartesian mapping of chemico-biological space (CBS). In particular, Cartesian planes combine three critical variables in drug discovery (affinity, size, and polarity) into easily interpretable ‘efficiency planes’ useful to guide a drug discovery process. In the Cartesian plane, each target:ligand pair appears as a point whose coordinates are given by pairs of values derived from the affinity of the ligand toward the target (Ki or equivalent) in relation to its size (MW or number of non-hydrogen atoms NHA), and its polarity (expressed as Polar Surface Area, PSA, or number of polar atoms, NPOL = count of N + O). The first one represents a size-related LEM and the second a polarity-related LEM. Consistently, compounds that correspond to marketed drugs typically occupy the upper right quadrant of the plots (‘Nort h-East’ direction, NE), where both the efficiency -pe r-size and efficiency -per-polarity are optimized 1,2.
Our results are represented in the efficiency plane NS EI-nBEI where:
NSEI = –log Ki/NPOL (N, O) = pKi/NPOL (N, O)
As a measure of activity of the above compounds, the reciprocal of the percentage efficacy values (1/Efficacy [%]) obtained in the PXR-dependent luciferase activity test (Emax values from Fig. 1) were used in lieu of the affinity constants (Ki in the above equations). FKK4 would appear as the most efficient compound since it is placed in the NE panel (GL, unpublished observations). However, this congener might suffer from metabolic liability with its N-protecting group possibly generating toxic aldehydes by oxidative cleavage in vivo. Unambiguously, the two most efficient compounds besides FKK4 are FKK5 and FKK6 which were therefore considered suitable lead compounds, as al so

IL-8 mRNA = test: TNF-α-induced IL-8 mRNA in human colonic enteroids (Calgary Protocol); assay type: cell-based; conditions: 10 μM, pair-wise vs DMSO
Method: Samples were immediately processed to yield isolated colonic crypts as previously described (Fernando et al, 2017). Isolated colonic crypts were embedded in Matrigel® (Corning) and cultured in Intesticult^tm Organoid Growth Media. Human organoids were pretreated for 6 h with either FKK5, FKK6, FKK9, or vehicle (DMSO), then stimulated with human recombinant TNF‐alpha in the presence of either treatment for an additional 12 h. Organoids were washed in PBS, disrupted in Tri Reagent® (Sigma, Oakville, ON, CAN), and frozen at −80°C. After thawing, chloroform was added, samples were centrifuged for 15 min, and the resulting aqueous phase was then added to equal volumes of 70% ethanol and further processed using the RNeasy mini kit (Qiagen). cDNA was synthesized using the QuantiTect RT kit (Qiagen) according to the manufacturer's protocol. Resulting cDNA was used as a template for quantitative real‐time PCR using Perfecta SYBR Green FastMix with ROX (QuantaBio). PCR and analysis were performed using a StepOne PCR System (Applied Biosystems). Gene expression was calculated relative to β‐actin expression and expressed as fold change of control. The primers used were as follows: Human®‐Actin (NM_001101), Human CYP3A4 (NM_001202855), and Human ABCB1 (NM_000927).

[1] = test system: CYP1A1, CYP3A4, MDR1 mRNA in HepaRG cells
Method: Caco‐2 cells were purchased from ATCC, and authenticity was validated by multiplexed STR DNA (short tandem repeat deoxyribonucleic acid) profiling performed by Genetica. […] Cells were maintained at 37°C and 5% CO2 in a humidified incubator. […] Three HepaRG™‐derived cell lines, including 5F Clone control cells, and cells with targeted functional PXR and AhR gene knockouts, PXR‐KO and AhR‐KO, respectively, were purchased from Sigma (Czech Republic). Cells were handled according to the manufacturer's protocol. Human hepatocytes were purchased from Biopredic International (France) and Triangle Research Labs, LLC, Lonza (USA). Cultures were maintained in serum‐free medium at 37°C and 5% CO2 in a humidified incubator.
The measurements were performed in triplicate.

| Compound | 520/495 TR-FRET ratio (hPXR; 0.001 uM) | 520/495 TR-FRET ratio (hPXR; 0.005 uM) | 520/495 TR-FRET ratio (hPXR; 0.01 uM) | 520/495 TR-FRET ratio (hPXR; 0.05 uM) | 520/495 TR-FRET ratio (hPXR; 0.1 uM) | 520/495 TR-FRET ratio (hPXR; 0.5 uM) | 520/495 TR-FRET ratio (hPXR; 1 uM) | 520/495 TR-FRET ratio (hPXR; 5 uM) | 520/495 TR-FRET ratio (hPXR; 10 uM) | 520/495 TR-FRET ratio (hPXR; 25 uM) | TR-FRET signal (Fig 1e) (hPXR; Drug Conc 5 nM) | TR-FRET signal (Fig 1e) (hPXR; Drug Conc 10 nM) | TR-FRET signal (Fig 1e) (hPXR; Drug Conc 25 uM) | LEM analysis prediction (PXR) | TNF-α-induced IL-8 mRNA levels (IL-8 mRNA) | CYP1A1 mRNA induction [1] | CYP1A1 (1A1) mRNA, fold to C ([1]; human, 24 h) | CYP3A4 (3A4) mRNA, fold to C ([1]; human, 24 h) | MDR1 mRNA fold to C ([1]; human, 24 h) | MDR-1 mRNA, fold to C ([1]; human, 24 h) | further results |
| --- | --- | --- | --- | --- | --- | --- | --- | --- | --- | --- | --- | --- | --- | --- | --- | --- | --- | --- | --- | --- | --- |
| O=C(c1ccncc1)c1cc2ccccc2n1S(=O)(=O)c1ccccc1 [FKK5, (1-(phenylsulfonyl)-1H-indol-2-yl)(pyridin-4-yl)methanone] | 0.6965 and 0.4501 and 0.6299 and 0.6424 | 0.7274 and 0.6833 and 0.7094 and 0.6960 | 0.5474 and 0.5649 and 0.4572 and 0.5311 | 0.6957 and 0.6419 and 0.6716 and 0.6881 | 0.6678 and 0.6931 and 0.6595 and 0.6666 | 0.6903 and 0.6366 and 0.6178 and 0.6056 | 0.6447 and 0.5990 and 0.6565 and 0.5995 | 0.4264 and 0.3946 and 0.3906 and 0.3944 | 0.2760 and 0.2201 and 0.3383 and 0.4401 | 0.2211 and 0.2334 and 0.2644 and 0.2449 | 0.7094 and 0.696 and 0.7274 and 0.6833 | 0.4572* and 0.5311* and 0.5474* and 0.5649* | 0.2644 and 0.2449 and 0.2211 and 0.2334 | best candidates for further studies | significantly lowered | did not induce | 0.81 fold | 1.92 fold | 1.03 fold | 0.96 fold | TR-FRET signal (Fig 1e) (hPXR; Drug Conc 1 uM): 0.5995 and 0.6565 and 0.599 and 0.6447; TR-FRET signal (Fig 1e) (hPXR; Drug Conc 5 uM): 0.3906 and 0.3944 and 0.4264 and 0.3946; TR-FRET signal (Fig 1e) (hPXR; Drug Conc 2,5 uM): 0.4667 and 0.4734 and 0.4777 and 0.4842; CYP3A4 mRNA induction [1]: HepaRG™ AhR‐KO cells; MDR-1 mRNA fold to C ([1]; human, 24 h): 1.25 fold |
| C#CCC(O)(c1ccncc1)c1cc2ccccc2n1S(=O)(=O)c1ccccc1 (stereo not drawn) [FKK6] | 0.4136 and 0.4057 and 0.5035 and 0.4539 | 0.6293 and 0.6196 and 0.5845 and 0.6237 | 0.6566 and 0.5913 and 0.6411 and 0.6166 | 0.6583 and 0.5743 and 0.6162 and 0.6466 | 0.7390 and 0.6524 and 0.6459 and 0.6637 | 0.5359 and 0.4958 and 0.5519 and 0.5445 | 0.5035 and 0.4918 and 0.5332 and 0.5717 | 0.3896 and 0.3581 and 0.3234 and 0.3736 | 0.2832 and 0.3381 and 0.2857 and 0.3170 | 0.3206 and 0.2975 and 0.3225 and 0.3589 | 0.6293 and 0.6196 and 0.5845 and 0.6237 | 0.6566 and 0.5913 and 0.6411 and 0.6166 | 0.3206 and 0.2975 and 0.3225 and 0.3589 | best candidates for further studies | did not reach statistical significance | did not induce | 8.33 fold | 2.91 fold | 1.04 fold | 0.98 fold | TR-FRET signal (Fig 1e) (hPXR; Drug Conc 0,25 uM): 0.6324 and 0.6211 and 0.6238 and 0.5836; TR-FRET signal (Fig 1e) (hPXR; Drug Conc 1 nM): 0.4136* and 0.4057* and 0.5035* and 0.4539*; TR-FRET signal (Fig 1e) (hPXR; Drug Conc 50 nM): 0.6583 and 0.5743 and 0.6162 and 0.6466; TR-FRET signal (Fig 1e) (hPXR; Drug Conc 10 uM): 0.2832 and 0.3381 and 0.2857 and 0.317; MDR-1 mRNA fold to C ([1]; HepaRG AHR-KO, normalised to GAPDH, fold vs UT): 1.31 fold; CYP3A4 mRNA induction ([1]; human, 24 h): only in HepaRG™ control 5F clone |

From publication PMC7136958, “Targeting the pregnane X receptor using microbial metabolite mimicry” (EMBO Molecular Medicine, 2020)
